Values quoted from earlier work, collected in patent publication US20060233725A1, “Non-Endocrine Disrupting Cytoprotective UV Radiation Resistant Substance” (priority 2001, published 2006).

System: cancer cells
Conditions: recent studies on endocrine disrupting agents in sunscreen formulations

Row | SMILES | effect on growth of cancer cells
1 | Cc1ccc(C=C2C(=O)C3(C)CCC2C3(C)C)cc1 (centres unmarked) [4-methylbenzylidene camphor] | made cancer cells grow more rapidly
2 | CCCCC(CC)COC(=O)C=Cc1ccc(OC)cc1 (centres unmarked) [octyl methoxycinnamate] | made cancer cells grow more rapidly
3 | CCCCC(CC)COC(=O)c1ccc(N(C)C)cc1 (centres unmarked) [octyl-dimethyl-PABA] | made cancer cells grow more rapidly

The next lines start with the values.

Row | effect on growth of cancer cells | SMILES
4 | made cancer cells grow more rapidly | COc1ccc(C(=O)c2ccccc2)c(O)c1 [benzophenone-s]
5 | made cancer cells grow more rapidly | CC1CC(OC(=O)c2ccccc2O)CC(C)(C)C1 (centres unmarked) [homosalate]
